From PMC4971072, “Chemically Homogenous Compounds with Antagonistic Properties at All α1-Adrenoceptor Subtypes but not β1-Adrenoceptor Attenuate Adrenaline-Induced Arrhythmia in Rats” (Frontiers in Pharmacology, 2016)

How the values were obtained:
[1] = system: adrenaline-induced arrhythmia in rats; assay: Prophylactic antiarrhythmic activity in adrenaline-induced arrhythmia; type: in vivo, rat
Protocol: The studied compounds were administered i.p. 45 min before the injection of adrenaline, calcium chloride, or barium chloride. The electrocardiogram (ECG) was recorded during the first 2 min as well as in the 5th, 10th, and 15th min after the arrhythmogen injection. […]

[2] = system: lipid peroxidation in rat brain homogenate; assay: Lipid peroxidation in rat brain homogenate (TBARS), antioxidant effect; type: biochemical; conditions: 10^−3 M
Protocol: The rat brain homogenate containing 10 mg tissue/ml was prepared in 0.9% saline. The rates of membrane lipid peroxidation were measured by the formation of thiobarbituric acid reactive substances (TBARS). Rat brain homogenates (1 ml) were incubated at 37°C for 5 min with 10 μl of a tested compound or vehicle. Lipid peroxidation was initiated by the addition of 50 μl of 0.5 mM FeCl2 and 50 μl of 2.0 mM ascorbic acid. After 30 min of incubation, the reaction was stopped by adding 0.1 ml of 0.2% butylated hydroxytoluene (BHT). Thiobarbituric acid reagent was then added and the mixture was heated for 15 min in a boiling water bath.

normal ECG in rats = assay: The effect on normal electrocardiogram in rats; type: in vivo, rat; conditions: anesthetized rats, i.p. at ED84
Protocol: The experiment was carried out to exclude the influence of tested compounds on normal ECG. […] The influence on QRS complex, PQ interval, heart rate (RR), and QTc interval was determined.

[3] = dose 2.5 mg/kg i.p. 45 min before adrenaline 20 μg/kg i.v.
[4] = dose 5 mg/kg i.p. 45 min before adrenaline 20 μg/kg i.v.
[5] = dose 10 mg/kg i.p. 45 min before adrenaline 20 μg/kg i.v.

## COc1ccccc1N1CCN(CCOCCOc2c(C)cccc2Cl)CC1.Cl [HBK-15, 1-[(2-chloro-6-methylphenoxy)ethoxyethyl]-4-(2-methoxyphenyl)piperazine hydrochloride]
[1]; Rattus norvegicus, read-out: ED50 (confidence limits)
  ED50: 4.8 mg/kg
[1]; [3]
  Bigeminy (%): 33.3%
  Blocks (%): 66.7%
  Bradycardia (%): 66.7%
  Extrasystoles (%): 66.7%
[1]; [4]
  Bigeminy (%): 16.7%
  Blocks (%): 50.0%
  Bradycardia (%): 66.7%
  Extrasystoles (%): 50.0%
[1]; [5]
  Bigeminy (%): 16.7%
  Blocks (%): 33.3%
  Bradycardia (%): 50.0%
  Extrasystoles (%): 33.3%
[2]
  inhibition of lipid peroxidation (in words): inactive
[2]; TBARs at 532 nm
  % reduction of absorbance (% antioxidant activity): 1.22%
  Absorbance: 0.891 ± 0.008
Normal ECG in rats
  influence on ECG parameters (PQ interval, QRS complex, QTc interval): did not influence the ECG parameters
Normal ECG in rats; 0 min (initial values)
  Beats/min (ECG): 353.8 ± 10.2 Beats/min
  PQ (ECG): 48.7 ± 1.0 ms
  QRS (ECG): 25.7 ± 0.7 ms
  QT (ECG): 87.3 ± 1.4 ms
  QTc (ECG, Bazett): 212.0 ± 5.0 ms
Normal ECG in rats; 5 min
  Beats/min (ECG): 365.4 ± 15.3 Beats/min
  PQ (ECG): 48.4 ± 0.5 ms
  QRS (ECG): 26.3 ± 0.9 ms
  QT (ECG): 86.5 ± 1.3 ms
  QTc (ECG, Bazett): 213.6 ± 7.0 ms
Normal ECG in rats; 10 min
  Beats/min (ECG): 350.8 ± 10.5 Beats/min
  PQ (ECG): 48.2 ± 1.0 ms
  QRS (ECG): 26.1 ± 1.1 ms
  QT (ECG): 87.2 ± 2.0 ms
  QTc (ECG, Bazett): 211.3 ± 6.2 ms
Normal ECG in rats; 15 min
  Beats/min (ECG): 333.9 ± 12.4 Beats/min
  PQ (ECG): 46.6 ± 0.9 ms
  QRS (ECG): 25.6 ± 1.2 ms
  QT (ECG): 87.5 ± 2.0 ms
  QTc (ECG, Bazett): 207.1 ± 6.8 ms
Normal ECG in rats; 20 min
  Beats/min (ECG): 327.6 ± 20.3 Beats/min
  PQ (ECG): 47.6 ± 0.5 ms
  QRS (ECG): 26.3 ± 0.5 ms
  QT (ECG): 87.2 ± 0.6 ms
  QTc (ECG, Bazett): 203.7 ± 7.2 ms
Normal ECG in rats; 30 min
  Beats/min (ECG): 340.1 ± 17.7 Beats/min
  PQ (ECG): 46.1 ± 0.3 ms
  QRS (ECG): 26.4 ± 0.9 ms
  QT (ECG): 86.7 ± 1.1 ms
  QTc (ECG, Bazett): 206.4 ± 7.9 ms
Normal ECG in rats; 40 min
  Beats/min (ECG): 339.5 ± 20.4 Beats/min
  PQ (ECG): 46.1 ± 0.7 ms
  QRS (ECG): 28.0 ± 0.9 ms
  QT (ECG): 87.0 ± 1.5 ms
  QTc (ECG, Bazett): 206.5 ± 6.6 ms
Normal ECG in rats; 50 min
  Beats/min (ECG): 350.1 ± 17.9 Beats/min
  PQ (ECG): 47.5 ± 0.7 ms
  QRS (ECG): 26.1 ± 1.2 ms
  QT (ECG): 88.2 ± 0.8 ms
  QTc (ECG, Bazett): 212.7 ± 6.9 ms
Normal ECG in rats; 60 min
  Beats/min (ECG): 351.8 ± 15.0 Beats/min
  PQ (ECG): 48.0 ± 1.1 ms
  QRS (ECG): 26.3 ± 0.5 ms
  QT (ECG): 88.5 ± 2.2 ms
  QTc (ECG, Bazett): 213.9 ± 7.2 ms
